Assay results: PubChem BioAssay (NCI)
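Tested at 5 concentrations; 48 h exposure; 96-well plates; endpoints linearly interpolated, else capped at highest concentration. Abbreviation: GI50, concentration required for 50% inhibition of growth. TGI: concentration producing complete growth inhibition.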

Tests used:
Experiment in all cases: NCI anticancer screen, dose series, 48 h
IGROV1 ovarian = tested on: IGROV1 ovarian
KM12 colon = tested on: KM12 colon
LOX IMVI melanoma = tested on: LOX IMVI melanoma
MOLT-4 leukemia = tested on: MOLT-4 leukemia
RPMI-8226 leukemia = tested on: RPMI-8226 leukemia
SK-MEL-28 melanoma = tested on: SK-MEL-28 melanoma
SNB-75 CNS = tested on: SNB-75 CNS
SR leukemia = tested on: SR leukemia
TK-10 renal = tested on: TK-10 renal
UACC-257 melanoma = tested on: UACC-257 melanoma

| SMILES | TGI (IGROV1 ovarian) [µM] | TGI (KM12 colon) [µM] | TGI (LOX IMVI melanoma) [µM] | TGI (MOLT-4 leukemia) [µM] | TGI (RPMI-8226 leukemia) [µM] | TGI (SK-MEL-28 melanoma) [µM] | TGI (SNB-75 CNS) [µM] | TGI (SR leukemia) [µM] | TGI (TK-10 renal) [µM] | TGI (UACC-257 melanoma) [µM] | GI50 (IGROV1 ovarian) [µM] | GI50 (KM12 colon) [µM] | GI50 (LOX IMVI melanoma) [µM] | GI50 (MOLT-4 leukemia) [µM] | GI50 (RPMI-8226 leukemia) [µM] | GI50 (SK-MEL-28 melanoma) [µM] | GI50 (SNB-75 CNS) [µM] | GI50 (SR leukemia) [µM] | GI50 (TK-10 renal) [µM] | GI50 (UACC-257 melanoma) [µM] |
| --- | --- | --- | --- | --- | --- | --- | --- | --- | --- | --- | --- | --- | --- | --- | --- | --- | --- | --- | --- | --- |
| C(=C\N1CCCCC1)/c1nnnn1-c1ccccc1 | 82.8 | > 100 | 50.9 | 41.9 | 59.6 | > 100 | 69.7 | 55 | > 100 | > 100 |  |  |  |  |  |  |  |  |  |  |
| CC1C(c2ccc(Cl)cc2)c2cc3c(cc2OC1N1CCOCC1)OCO3 (stereo not given) | > 100 | > 100 | > 100 | > 100 | > 100 | > 100 | > 100 | 17.9 | > 100 | > 100 |  |  |  |  |  |  |  |  |  |  |
| CC(=O)N(O)c1ccc(-c2nc3ccccc3s2)cc1 | > 100 | > 100 | > 100 | > 100 | > 100 | > 100 | > 100 | > 100 | > 100 | > 100 |  |  |  |  |  |  |  |  |  |  |
| O=[N+]([O-])c1ccc(O)c(/C=N/NC(=S)N2CCCCC2)c1 | 8.76 | 40 | 17.1 | > 44.4 | > 52.4 | > 100 | 33.1 | > 70.2 | 44 | 14.1 |  |  |  |  |  |  |  |  |  |  |
| C=CCOCn1cc(C)c(=O)[nH]c1=O | > 100 | > 100 | > 100 | > 100 | > 100 | > 100 | > 100 | > 100 | > 100 | > 100 |  |  |  |  |  |  |  |  |  |  |
| CC1CC(=O)N(N(C)C)C(C#N)(C#N)C1(C#N)C#N (stereo not given) | 40 | > 64.9 | 42.7 | 5.04 | 32 | 34.3 | > 51 | 30.7 | 30.3 | 29.8 |  |  |  |  |  |  |  |  |  |  |
| COC(OC)[C@@H]1OC[C@@H](O)[C@@H]1n1cnc2c(N)ncnc21 | > 100 | > 100 | > 100 | > 100 | > 100 | > 100 | > 100 | > 100 | > 100 | > 100 |  |  |  |  |  |  |  |  |  |  |
| O=C(Nc1ccccc1)c1cc(S(=O)(=O)N2CCNNC2=O)c(S)cc1Cl | > 100 | > 100 | > 100 | > 100 | > 100 | > 100 | > 100 | > 100 | > 100 | > 100 |  |  |  |  |  |  |  |  |  |  |
| COc1ccc(/C=C/C2=NN(c3cccc(S(=O)(=O)O)c3)C3(C2)SCC(=O)N3c2nc3ccccc3s2)cc1 (stereo not given) | > 100 | > 100 | > 100 | > 100 | 84.5 | > 100 | > 100 | > 100 | > 100 | > 100 |  |  |  |  |  |  |  |  |  |  |
| CC(=N\N)/C(C)=N/N=C(C)/C(C)=N/N=C(C)/C(C)=N/N | > 100 | > 100 | > 100 | > 100 | > 100 | > 100 | > 100 | > 100 | > 100 | > 100 |  |  |  |  |  |  |  |  |  |  |
| Cc1cc(=O)[nH]c(NN2C(Cl)C(=O)C2c2cccc(Cl)c2)n1 (stereo not given) | 37.1 | 67 | 32.8 | 40.7 | 34.8 | > 100 | 62.8 | 44.3 | > 100 | > 100 |  |  |  |  |  |  |  |  |  |  |
| CC1=NC(=Cc2ccc([N+](=O)[O-])cc2)C(=O)N1n1c(-c2ccccc2)nc2ccccc2c1=O | > 100 | > 100 | > 100 | 72.5 | 53.6 | > 100 | > 100 | > 100 | > 100 | > 100 |  |  |  |  |  |  |  |  |  |  |
| COc1ccc2c(OCc3nnc4ccc(-c5ccccc5)nn34)ccnc2c1 | > 100 | > 100 | > 100 | > 100 | > 100 | > 100 | > 100 | > 100 | > 100 | > 100 | > 100 | > 100 | > 100 | > 100 | > 100 | > 100 | > 100 | 5.64 | > 100 | > 100 |
| O=C1C(CN2CCOCC2)CCCC1CN1CCOCC1 (stereo not given) | 17.3 | 17.8 | 8.98 | 2.33 | 2.34 | 3.83 | 29.9 | > 100 | 8.72 | 5.72 |  |  |  |  |  |  |  |  |  |  |
| CNc1ncc(-c2nnnn2-c2ccccc2)c(CN(C)C)n1 | > 100 | > 100 | > 100 | > 100 | > 100 | > 100 | > 100 | > 100 | > 100 | > 100 |  |  |  |  |  |  |  |  |  |  |
| COC(=O)c1ccc(Nc2nc3nc[nH]c3c(=O)[nH]2)cc1 | > 100 | > 100 | > 100 | > 100 | > 100 | > 100 | > 100 | > 100 | > 100 | > 100 |  |  |  |  |  |  |  |  |  |  |
| COc1ccc(C(C2=C(O)COC2=O)c2cc3c(cc2O)OCO3)cc1OC (stereo not given) | > 100 | > 100 | > 100 | > 100 | > 100 | > 100 | > 100 | > 100 | > 100 | > 100 |  |  |  |  |  |  |  |  |  |  |
| COc1ccccc1C[C@@H]1OC2(C=CC(=O)C=C2)O[C@H]1Cc1ccccc1OC | 13.6 | 18.8 | 13.8 | > 50 | 6.24 | 16.1 | 17.6 | 13.1 | 27.4 | 16.1 |  |  |  |  |  |  |  |  |  |  |
| O=C1c2cn[nH]c2C(c2ccccc2)N1c1ccccc1 (stereo not given) | > 10 | > 10 | > 10 | > 10 | > 10 | > 10 | > 10 | > 10 | > 10 | > 10 |  |  |  |  |  |  |  |  |  |  |
| Cc1ccc2c(c1)C(=O)C(C1OC(=O)c3ccccc31)C2 (stereo not given) | > 100 | > 100 | > 100 | > 100 | > 100 | > 100 | > 100 | > 100 | > 100 | > 100 |  |  |  |  |  |  |  |  |  |  |
| CCOc1cc(NC(C)=O)ccc1C(=O)NN1C(=O)CSC1c1ccccc1 (stereo not given) | > 100 | > 100 | > 100 | 58.2 | > 100 | > 100 | > 100 | > 100 | > 100 | > 100 |  |  |  |  |  |  |  |  |  |  |
| C[Si](C)(c1ccccc1)[C@H]1CCCC=C1CCNC1c2ccccc2CCc2ccccc21 | > 100 | > 100 | > 100 | > 100 | > 100 | > 100 | > 100 | > 100 | > 100 | > 100 |  |  |  |  |  |  |  |  |  |  |
| CC(C)C1N(C)c2ccc(Cl)cc2[C@H]2c3ccccc3CCN12 (stereo not given in full) | > 100 | > 100 | 55.7 | > 100 | 79.8 | > 100 | > 100 | > 100 | > 100 | 90.3 |  |  |  |  |  |  |  |  |  |  |
